Tests used:
[1] = test system: MMP-2; assay: Zymography of MMP-2 from pre-treated SW1353 cells; format: cell-based, human; conditions: PMA-pre-treated SW1353; 0.1 μM, 24 h
Description: At the beginning of the experiment, the cells were pre-treated with 100 ng/mL PMA or 10 ng/mL IL-1β for 24 hours. The cells were then treated with 0.1 μM Dexamethasone, various astragaloside compounds (0.1 μM) or extracts of Astragalus membranaceous (1 μg/mL) at indicated dosages for another 24 hours. For control sample, 0.1% DMSO was used as a negative control for these experiments. The conditioned culture mediums were then centrifuged, 2-fold concentrated and collected for assay of collagens or MMPs secreted into the culture medium.
The proteolytic activities of MMPs from SW1353 cells were measured essentially as described previously (Circ Res, 1999; 85:906-911). The cells were lysed in lysis buffer (1% Triton X-100, 50 mM Tris-Cl, pH 7.4, 180 mM NaCl, 1 mM EDTA). The samples were measured for their protein concentration using the bicinchoninic acid (BCA) protein assay kit as described. Samples of concentrated conditioned medium and cell lysates were mixed with non-reducing electrophoresis loading buffer and subjected to electrophoresis under non-reducing conditions. The electrophoresis was carried out on a 10% SDS-PAGE co-polymerized with 2 mg/mL gelatin or casein (Sigma, St. Louis, Mo. USA). For zymographic analysis of pro-MMP-2 and activated MMP-2, the total 20 μg of culture medium were used for electrophoresis. Following electrophoresis, renaturation of the proteins was achieved by incubating the gels twice in 25 g/L Triton X-100 at room temperature for 10 min. Subsequently the gels were incubated in 50 mM Tris-HCl, pH 7.5 containing 0.2 M NaCl, 0.02% Brij35 and 10 mM CaCl2 at 37° C. for 18 hours. After the gels were stained with Coomassie Brilliant Blue R-250 and destained, zones of proteolytic activities became visible as transparent bands in the stained gel. In order to obtain higher sensitivity, the gels were further destained in a solution of 1% Triton X-100 (1 to 2 hours). This procedure increased the signal-to-noise ratio, allowing the visualization of faint gelatinase bands at 92 kDa, 125 kDa and greater than 200 kDa. Zymograms were read using a Molecular Dynamics (Sunnyvale, Calif., USA) computing laser densitometer with Image Quant software.

[2] = test system: MMP1 mRNA; assay: RT-PCR of MMP1 mRNA expression in SW1353 cells; format: cell-based, human; conditions: for MMP1 mRNA expression after AS4 treatment followed by PMA: then 100 ng/mL PMA 24 h; for MMP1 mRNA expression after only AS4 treatment: 24 h, no PMA
Description: First of all, the interaction between TIMP1 mRNA expression and MMP1 mRNA expression in human SW1353 cell line after only AS4 treatment was studied. […] The SW1353 cells were then collected for RT-PCR analysis.
In a second testing, the effect of AS4 treatment followed by PMA treatment was also studied. The SW1353 cells were first treated with astragaloside IV (AS4) at a concentration of 0.01 μM, 0.1 μM, or 1 μM, followed by incubation for 24 hours. Then PMA was added into each well, followed by incubation for 24 hours. These SW1353 cells were also collected for RT-PCR analysis in the end of the second testing.
Total RNAs were isolated from the cultured human cells using NucleoSpin RNAII Kit (Macherey-Nagel Inc., PA, USA). Five μg of RNA was reverse transcribed in a total 20 μl transcription mixture. The reaction tube containing primers (oligo(dT)), RNA, 10 mM dNTP Mix, and DEPC-treated water was first incubated at 65° C. for 5 minutes. Eight μl master reaction mixture containing 4 μl 5× cDNA synthesis Buffer, 1 μl 0.1 M DTT, 1 μl RNase OUT™ (40U/μl), 1 μl DEPC-Treated water, and 1 μl SuperScript™II was then added into the reaction tube. The reaction tube was then incubated at 50° C. for 60 minutes, followed by incubation at 85° C. for 5 minutes. Finally, 1 μl RNase H was added at 37° C. and the reaction tube was incubated for 20 minutes. The resulting cDNA was further amplified by PCR. The relevant primers for the following PCR reaction were listed below.
(i) The MMP1 forward primer is 5′-ACTCTGGAGTAATGTCACACCT-3′ (SEQ ID NO: 1), and the MMP1 reverse primer is 5′-GTTGGTCCACCTTTCATCTTCA-3′ (SEQ ID NO: 2);
In addition, the PCR reaction of MMP1 cDNA was preformed as follows: 95° C. for 5 min, followed by 35 cycles of 94° C. for 30 sec, 60° C. for 30 sec, and 72° C. for 30 sec, and then 72° C. for 10 min followed by maintaining at 4° C. Similarly, the PCR reaction of TIMP1 cDNA was performed as follows: 94° C. for 5 min, followed by 35 cycles of 94° C. for 30 sec, 60° C. for 30 sec, and 72° C. for 30 sec, and then 72° C. for 10 min followed by maintaining at 4° C. The PCR reaction of GAPDH cDNA was performed as follows: 94° C. for 5 min, followed by 18 cycles of 94° C. for 30 sec, 54° C. for 30 sec, and 72° C. for 30 sec, and then 72° C. for 30 sec followed by maintaining at 4° C. These PCR products were analyzed by electrophoresis on a 1.5% gel.

Q: For CC(C)(O)[C@@H]1CC[C@](C)([C@H]2[C@@H](O)C[C@@]3(C)[C@@H]4C[C@H](O[C@@H]5O[C@H](CO)[C@@H](O)[C@H](O)[C@H]5O)[C@H]5C(C)(C)[C@@H](O[C@@H]6OC[C@@H](O)[C@H](O)[C@H]6O)CC[C@@]56C[C@@]46CC[C@]23C)O1 [AS4, Astragaloside IV], which “MMP-2, Zymography, relative to Ctrl 1.00” value [1] is on record?
A: 1.01

Q: What about the “MMP1 mRNA expression after AS4 treatment followed by PMA” value (shortened to “MMP1 mRNA expression … by PMA”) ([2]; AS4 0.01 μM 24 h) of the same compound?
A: 0.98

Q: And the “MMP1 mRNA expression after only AS4 treatment” value ([2]; AS4 0.01 μM)?
A: 0.97

Q: And the “MMP1 mRNA expression … by PMA” value ([2]; AS4 0.1 μM 24 h)?
A: 0.84

Q: And the “MMP1 mRNA expression after only AS4 treatment” value ([2]; AS4 0.1 μM)?
A: 1.07

Q: And the “MMP1 mRNA expression … by PMA” value ([2]; AS4 1 μM 24 h)?
A: 0.53

Q: What about the “MMP1 mRNA expression after only AS4 treatment” value ([2]; AS4 1 μM) of the same compound?
A: 0.93

From US8168596B2, “Use of cycloartane compounds for treating arthritis” (NuLiv Holding Inc., priority 2008, dated 2012)
